Measured values reported in patent US20070078096A1, “Buffered drug formulations for transdermal electrotransport delivery” (priority 1997, published 2007).
Like-named read-outs stand apart in the source and are kept apart here. Non-standard residues stand in square brackets, D forms with d. Residues, ends and D or L forms follow the SMILES beside them. Cit = NC(=O)NCCC[C@H](N)C(=O)O; Orn = NCCC[C@H](N)C(=O)O

Test: pKa, pI and charge distribution of buffers
Details: for % salt: fraction of dipeptide carrying a net charge in aqueous solution at pH equal to pI
Excerpt: At the pI, three species coexist.
In an electric field these negative species move in the opposite direction of their positive associated counterions.
Choice of the dipeptide buffer will be on a case-by-case basis depending on the drug compound and the desired level of pH control and conductivity of the formulation.

Compound | pka A | pI (Table 2) | % salt [%] | pka B | pI | species presenting a net charge (salt form) at the pI (at pI)
C[C@H](N)C(=O)N[C@@H](Cc1cnc[nH]1)C(=O)O [Ala-His] (H-Ala-His-OH) | 2.42 | 7.55 | 22 | – | – | –
Cn1cncc1C[C@H](NC(=O)CCN)C(=O)O [Anserine] | 2.64 | 8.27 | 10 | – | – | –
NC(N)=NCCC[C@H](N)C(=O)N[C@@H](CC(=O)O)C(=O)O [Arg-Asp] (H-Arg-Asp-OH) | – | 6.08 | 2 | – | – | –
NC(N)=NCCC[C@H](N)C(=O)N[C@@H](CCC(=O)O)C(=O)O [Arg-Glu] (H-Arg-Glu-OH) | – | 6.06 | 3 | – | – | –
NC(=O)C[C@H](N)C(=O)N[C@@H](Cc1cnc[nH]1)C(=O)O [Asn-His] (H-Asn-His-OH) | 2.42 | 7.00 | 44 | – | – | –
N[C@@H](CC(=O)O)C(=O)N[C@@H](CC(=O)O)C(=O)O [Asp-Asp] (H-Asp-Asp-OH) | – | 3.05 | 43 | 8.26 | – | –
N[C@@H](CC(=O)O)C(=O)N[C@@H](Cc1cnc[nH]1)C(=O)O [Asp-His] (H-Asp-His-OH) | – | 4.90 | 3 | – | – | –
NCCC(=O)N[C@@H](Cc1c[nH]cn1)C(=O)O [Beta-Alanylhistidine] | – | 7.70 | 16 | – | – | –
NCCC(=O)N[C@@H](Cc1cnc[nH]1)C(=O)O [Carnosine] | – | 8.17 | 8 | – | – | –
NC(=O)NCCC[C@H](N)C(=O)N[C@@H](Cc1c[nH]cn1)C(=O)O [Citrulline-His] (H-[Cit]-His-OH) | 2.42 | 7.30 | 32 | – | – | –
NC(=O)CC[C@H](N)C(=O)N[C@@H](Cc1cnc[nH]1)C(=O)O [GIn-His] (H-Gln-His-OH) | 2.42 | 7.20 | 36 | – | – | –
NC(N)=NCCC[C@H](NC(=O)[C@@H](N)CCC(=O)O)C(=O)O [Glu-Arg] (H-Glu-Arg-OH) | – | 6.00 | 2 | – | – | –
N[C@@H](CCC(=O)O)C(=O)N[C@@H](Cc1cnc[nH]1)C(=O)O [Glu-His] (H-Glu-His-OH) | – | 5.20 | 5 | – | 5.2 | about 5%
NCC(=O)N[C@@H](CC(=O)O)C(=O)O [Gly-Asp] (H-Gly-Asp-OH) | – | 3.60 | 23 | 8.60 | – | –
NC(=O)C[C@H](NC(=O)[C@@H](N)Cc1cnc[nH]1)C(=O)O [His-Asn] (H-His-Asn-OH) | 2.62 | 6.95 | 22 | – | – | –
NC(=O)NCCC[C@H](NC(=O)[C@@H](N)Cc1c[nH]cn1)C(=O)O [His-Citrulline] (H-His-[Cit]-OH) | 3.05 | 6.95 | 22 | – | – | –
NC(=O)CC[C@H](NC(=O)[C@@H](N)Cc1cnc[nH]1)C(=O)O [His-Gln] (H-His-Gln-OH) | 2.93 | 6.95 | 22 | – | – | –
N[C@@H](Cc1cnc[nH]1)C(=O)N[C@@H](Cc1cnc[nH]1)C(=O)O [His-His] | 2.25 | 7.40 | 32 | – | – | –
NCC(O)CC[C@H](NC(=O)[C@@H](N)Cc1c[nH]cn1)C(=O)O (stereo partly shown) [His-Hydroxylysine] | 3.05 | 8.75 | 17 | – | – | –
N[C@@H](Cc1c[nH]cn1)C(=O)N1CC(O)C[C@H]1C(=O)O (stereo partly shown) [His-Hydroxyproline] | 2.42 | 6.95 | 22 | – | – | –
CC[C@H](C)[C@H](NC(=O)[C@@H](N)Cc1cnc[nH]1)C(=O)O [His-Isoleucine] (H-His-Ile-OH) | 3.13 | 6.95 | 22 | – | – | –
CC(C)C[C@H](NC(=O)[C@@H](N)Cc1cnc[nH]1)C(=O)O [His-Leu] (H-His-Leu-OH) | 3.10 | 6.95 | 22 | – | – | –
NCCCC[C@H](NC(=O)[C@@H](N)Cc1cnc[nH]1)C(=O)O [His-Lys] (H-His-Lys-OH) | 3.05 | 9.40 | 5 | – | – | –
CSCC[C@H](NC(=O)[C@@H](N)Cc1cnc[nH]1)C(=O)O [His-Met] (H-His-Met-OH) | 2.89 | 6.95 | 22 | – | – | –
NCCC[C@H](NC(=O)[C@@H](N)Cc1c[nH]cn1)C(=O)O [His-Ornithine] (H-His-[Orn]-OH) | 2.82 | 9.40 | 5 | – | – | –
N[C@@H](Cc1cnc[nH]1)C(=O)N[C@@H](Cc1ccccc1)C(=O)O [His-Phe] (H-His-Phe-OH) | 2.88 | 6.95 | 22 | – | – | –

Compound | pka A | pI (Table 2) | % salt [%] | pka B | pI | species presenting a net charge (salt form) at the pI (at pI)
N[C@@H](Cc1cnc[nH]1)C(=O)N1CCC[C@H]1C(=O)O [His-Pro] | 2.62 | 6.95 | 22 | – | – | –
N[C@@H](Cc1cnc[nH]1)C(=O)N[C@@H](CO)C(=O)O [His-Ser] (H-His-Ser-OH) | 2.65 | 6.95 | 22 | – | – | –
C[C@@H](O)[C@H](NC(=O)[C@@H](N)Cc1cnc[nH]1)C(=O)O [His-Thr] (H-His-Thr-OH) | 2.98 | 6.95 | 22 | – | – | –
N[C@@H](Cc1cnc[nH]1)C(=O)N[C@@H](Cc1c[nH]c2ccccc12)C(=O)O [His-Trp] | 3.07 | 6.95 | 22 | – | – | –
N[C@@H](Cc1cnc[nH]1)C(=O)N[C@@H](Cc1ccc(O)cc1)C(=O)O [His-Tyr] (H-His-Tyr-OH) | – | 6.95 | 22 | – | – | –
CC(C)[C@H](NC(=O)[C@@H](N)Cc1cnc[nH]1)C(=O)O [His-Val] (H-His-Val-OH) | 3.18 | 6.95 | 22 | – | – | –
NC[C@H](O)CC[C@H](N)C(=O)N[C@@H](Cc1c[nH]cn1)C(=O)O [Hydroxylysine-His] | 2.42 | 8.60 | 13 | – | – | –
O=C(O)[C@H](Cc1c[nH]cn1)NC(=O)[C@@H]1CC(O)CN1 (stereo partly shown) [Hydroxyproline-His] | 2.42 | 7.45 | 25 | – | – | –
CC[C@H](C)[C@H](N)C(=O)N[C@@H](Cc1cnc[nH]1)C(=O)O [Isoleucine-His] (H-Ile-His-OH) | 2.42 | 7.44 | 25 | – | – | –
CC(C)C[C@H](N)C(=O)N[C@@H](Cc1cnc[nH]1)C(=O)O [Leu-His] (H-Leu-His-OH) | 2.42 | 7.50 | 24 | – | – | –
NCCCC[C@H](N)C(=O)N[C@@H](Cc1cnc[nH]1)C(=O)O [Lys-His] | 2.42 | 9.50 | 5 | – | – | –
CSCC[C@H](N)C(=O)N[C@@H](Cc1cnc[nH]1)C(=O)O [Met-His] (H-Met-His-OH) | 2.42 | 7.35 | 30 | – | – | –
NCCC[C@H](N)C(=O)N[C@@H](Cc1c[nH]cn1)C(=O)O [Ornithine-His] | 2.42 | 9.20 | 3 | – | – | –
N[C@@H](Cc1ccccc1)C(=O)N[C@@H](Cc1cnc[nH]1)C(=O)O [Phe-His] (H-Phe-His-OH) | 2.42 | 7.20 | 36 | – | – | –
O=C(O)C(Cc1cnc[nH]1)NC(=O)C1CCCN1 (stereo not shown) [Pro-His] | 2.42 | 7.90 | 11 | – | – | –
N[C@@H](CO)C(=O)N[C@@H](Cc1cnc[nH]1)C(=O)O [Ser-His] (H-Ser-His-OH) | 2.42 | 7.20 | 36 | – | – | –
C[C@@H](O)[C@H](N)C(=O)N[C@@H](Cc1cnc[nH]1)C(=O)O [Thr-His] (H-Thr-His-OH) | 2.42 | 7.15 | 39 | – | – | –
N[C@@H](Cc1c[nH]c2ccccc12)C(=O)N[C@@H](Cc1cnc[nH]1)C(=O)O [Trp-His] (H-Trp-His-OH) | 2.42 | 7.30 | 32 | – | – | –
NC(N)=NCCC[C@H](NC(=O)[C@@H](N)Cc1ccc(O)cc1)C(=O)O [Tyr-Arg] | – | 8.40 | 17 | – | – | –
N[C@@H](Cc1ccc(O)cc1)C(=O)N[C@@H](Cc1cnc[nH]1)C(=O)O [Tyr-His] (H-Tyr-His-OH) | – | 7.15 | 39 | – | – | –
Gly-Gly-Gly-Gly-His (GGGGH; printed: Gly-Gly-Gly-Gly-His) | – | – | – | – | 7.55 | –
Gly-Gly-Gly-His (GGGH; printed: Gly-Gly-Gly-His) | – | – | – | – | 7.5 | –
Gly-Gly-His | – | – | – | – | 7.5 | –
His-Gly-Gly | – | – | – | – | 6.9 | –
His-Gly-Gly-Gly (HGGG; printed: His-Gly-Gly-Gly) | – | – | – | – | 6.9 | –
His-Gly-Gly-Gly-Gly (HGGGG; printed: His-Gly-Gly-Gly-Gly) | – | – | – | – | 6.0 | –
